Assays:
Assay type in all cases: in vivo, C57BL/6J male mice
GSH, PON, GR = experiment: Antioxidant enzyme activity in liver and plasma; conditions: DRH supplementation; decrease in NC vs YC
Description: To analyze antioxidant activity, superoxide dismutase (SOD) activity was measured in an alkaline state by pyrogallol autoxidation using a modified method of Marklund et al. Also, catalase (CAT) activity was measured using a modified method of Aebi et al. Paraoxonase (PON) activity was measured using a modified method of Mackness et al. in order to measure an increase in absorbance of p-nitrophenol. Glutathione reductase (GR) activity was measured using a modified method of Pinto and Bartley, which was used to measure NADPH oxidation. Total glutathione (GSH) content was measured using a modified method of Ellman et al.

TNF-α = experiment: Western blotting of TNF-α expression; conditions: DRH group vs NC group
Description: The amount of cytoplasmic and membrane proteins was quantified according to the Bradford method. Thereafter, a protein load was applied onto a 10% SDS-polyacrylamide gel, transferred to a Tris-glycine electrophoresis buffer for an hour, and then electrophoresed. The positions of the bands were confirmed using a Ponceau solution, blocking (5% skim milk in TBS/0.1% Tween-20) was performed at room temperature for 60 minutes in order to reduce non-specific reactions to the membrane. Then, the samples were reacted with a primary antibody overnight at 4° C. […]

aged mice [1] = experiment: Left hind leg thickness (digital calipers); conditions: week 12, DRH group vs NC group
Description: The thicknesses of left hind legs were measured using Bluetec digital calipers (Korea, BLUETEC, BD500) every 4 weeks during the experiment period, and the leg thickness was divided by the body weight of each mouse in order to minimize differences between individuals (mm/100 g× body weight).

[2] = Liver and erythrocyte H2O2 content and TBARs; conditions: DRH supplementation; increase in NC vs YC
[3] = system: differentially expressed genes (DEG); experiment: RT-PCR and Western blotting verification of differentially expressed genes; conditions: verification of mRNA-seq results
Description: After total RNA was isolated, total complementary DNA (cDNA) was synthesized. For real-time PCR analysis, template cDNA was diluted with RNAse-free water and used at a concentration of 25 ng/μL. Then, gene expression was analyzed using a QuantitTeck SYBR Green PCR kit (QIAGEN, Germany).
Each of the reaction solutions consisted of 10 μL of SYBR Green, 2 μL of a template, and 200 μM primers. RNAse-free water was added to a final volume of 20 μL, and reacted at 94° C. for 15 seconds, and then 58° C. and 72° C. for 30 seconds. The reaction solution was reacted 40 times at 65° C. for 30 seconds at 15 seconds per cycle. In this case, by monitoring the fluorescence signal for each cycle and analyzing the resulting threshold cycle (Ct), mRNA expression between the respective experimental groups was quantitatively analyzed using a CFX96 Real-time system (Bio-Rad, USA). […]
The amount of cytoplasmic and membrane proteins was quantified according to the Bradford method. […]

aged mice [4] = experiment: Weights of quadriceps, anterior tibialis and gastrocnemius tissues; conditions: per 100 g body weight, DRH group vs NC group
Description: Specifically, a negative control group (NC, n=7, American Institute of Nutrition AIN-93G Semisynthetic diet); a D-ribo-2-hexulose-treated group (D-ribo-2-hexulose; DRH, n=7; a portion of cellulose in AIN-93G was replaced with 3% D-ribo-2-hexulose). […] The dose of D-ribo-2-hexulose was set at 3% based on previous animal studies. In the previous studies, the dose of D-ribo-2-hexulose was determined to be 3% in order to investigate a biological effect at a lower dose than the dose. During the experiment, the mice had free access to distilled water, and the food intakes and body weights of the mice were measured weekly, and blood glucose was measured once every 4 weeks. All animal experiments were approved by the Animal Research Ethics Committee of KyungPook National University (Approval Number: KNU-2020-109).

O=C(CO)[C@H](O)[C@H](O)[C@H](O)CO [DRH, D-ribo-2-hexulose]
liver GR activity (GSH, PON, GR): increased
liver GSH-Px activity (GSH, PON, GR): increased
liver PON activity (GSH, PON, GR): increased
plasma PON activity (GSH, PON, GR): increased
TNF-α expression (TNF-α): significantly decreased
thicknesses of the left hind legs (aged mice [1]): significantly increased
liver H2O2 content [2]: significantly reduced
RT-PCR analysis and Western blotting on DEG [3]: consistent with those obtained by mRNA-seq analysis
weight of the left anterior tibialis (aged mice [4]): significantly increased
weights of the right and left quadriceps (aged mice [4]): significantly increased

Source: patent publication US12582614B2, “Composition for preventing, alleviating or treating sarcopenia, containing D-ribo-2-hexulose as active ingredient” (KYUNGPOOK NATIONAL UNIVERSITY INDUSTRY-ACADEMIC COOPERATION …, priority 2021, dated 2026)
